Measured values from patent US20220281848A1, “PYRAZOLE-SUBSTITUTED PYRROLIDINONES AS HERBICIDES” (FMC Corporation, priority 2019, published 2022).

System: plants
Assay: Test D pre-emergence, other plants of Tables D1 and D3
Format: in vivo
Conditions: for damage to plant (100=total damage to plant; 0=no damage to plant), SORVU: preemergent, 20 DAA; for damage to plant, ALOMY / damage to plant, AVEFA / damage to plant, BEAVA / damage to plant, BROTE / damage to plant, BRSNN / damage to plant, CHEAL / damage to plant, GALAP / damage to plant, HORVW / damage to plant, KCHSC / damage to plant, LOLPE / damage to plant, POAAN / damage to plant, POLCO / damage to plant, SINAR / damage to plant, STEME / damage to plant, VERPE: pre-emergence, 100=total damage, 0=no damage
How it was run: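 Seeds treated with herbicide safener; sown in soil; glasshouse, 16 h light, 65% humidity. Sprayed day 1 (pre) or ~day 12 (post). Spray in 0.2% v/v adjuvant. Scored 0–100 damage: 20 DAA pre, 15 d post.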

SMILES: CCn1nc([C@H]2CN(C)C(=O)[C@@H]2C(=O)Nc2cccc(F)c2F)c2c(F)cccc21 [Compound 7]
- damage to plant (100=total damage to plant; 0=no damage to plant), SORVU (rate 130): 20
- damage to plant (100=total damage to plant; 0=no damage to plant), SORVU (rate 250): 70
- damage to plant (100=total damage to plant; 0=no damage to plant), SORVU (rate 500): 80
- damage to plant, ALOMY (rate 15, 20 DAA): 0
- damage to plant, AVEFA (rate 15, 20 DAA): 0
- damage to plant, BEAVA (rate 15, 20 DAA): 0
- damage to plant, BROTE (rate 15, 20 DAA): 0
- damage to plant, BRSNN (rate 15, 20 DAA): 0
- damage to plant, CHEAL (rate 15, 20 DAA): 0
- damage to plant, GALAP (rate 15, 20 DAA): 0
- damage to plant, HORVW (rate 15, 20 DAA): 0
- damage to plant, KCHSC (rate 15, 20 DAA): 0
- damage to plant, LOLPE (rate 15, 20 DAA): 0
- damage to plant, POAAN (rate 15, 20 DAA): 0
- damage to plant, POLCO (rate 15, 20 DAA): 0
- damage to plant, SINAR (rate 15, 20 DAA): 0
- damage to plant, STEME (rate 15, 20 DAA): 0
- damage to plant, VERPE (rate 15, 20 DAA): 0
- damage to plant, ALOMY (rate 30, 20 DAA): 0
- damage to plant, AVEFA (rate 30, 20 DAA): 0
- damage to plant, BEAVA (rate 30, 20 DAA): 0
- damage to plant, BROTE (rate 30, 20 DAA): 0
- damage to plant, BRSNN (rate 30, 20 DAA): 0
- damage to plant, CHEAL (rate 30, 20 DAA): 0
- damage to plant, GALAP (rate 30, 20 DAA): 0
- damage to plant, HORVW (rate 30, 20 DAA): 0
- damage to plant, KCHSC (rate 30, 20 DAA): 0
- damage to plant, LOLPE (rate 30, 20 DAA): 0
- damage to plant, POAAN (rate 30, 20 DAA): 0
- damage to plant, POLCO (rate 30, 20 DAA): 0
- damage to plant, SINAR (rate 30, 20 DAA): 0
- damage to plant, STEME (rate 30, 20 DAA): 0
- damage to plant, VERPE (rate 30, 20 DAA): 0
- damage to plant, ALOMY (rate 60, 20 DAA): 0
- damage to plant, AVEFA (rate 60, 20 DAA): 0
- damage to plant, BEAVA (rate 60, 20 DAA): 0
- damage to plant, BROTE (rate 60, 20 DAA): 0
- damage to plant, BRSNN (rate 60, 20 DAA): 0
- damage to plant, CHEAL (rate 60, 20 DAA): 0
- damage to plant, GALAP (rate 60, 20 DAA): 0
- damage to plant, HORVW (rate 60, 20 DAA): 0
- damage to plant, KCHSC (rate 60, 20 DAA): 0
- damage to plant, LOLPE (rate 60, 20 DAA): 0
- damage to plant, POAAN (rate 60, 20 DAA): 0
- damage to plant, POLCO (rate 60, 20 DAA): 0
- damage to plant, SINAR (rate 60, 20 DAA): 0
- damage to plant, STEME (rate 60, 20 DAA): 0
- damage to plant, VERPE (rate 60, 20 DAA): 0
- damage to plant, ALOMY (rate 130, 20 DAA): 0
- damage to plant, AVEFA (rate 130, 20 DAA): 10
- damage to plant, BEAVA (rate 130, 20 DAA): 0
- damage to plant, BROTE (rate 130, 20 DAA): 0
- damage to plant, BRSNN (rate 130, 20 DAA): 0
- damage to plant, CHEAL (rate 130, 20 DAA): 0
- damage to plant, GALAP (rate 130, 20 DAA): 0
- damage to plant, HORVW (rate 130, 20 DAA): 0
- damage to plant, KCHSC (rate 130, 20 DAA): 0
- damage to plant, LOLPE (rate 130, 20 DAA): 0
- damage to plant, POAAN (rate 130, 20 DAA): 0
- damage to plant, POLCO (rate 130, 20 DAA): 0
- damage to plant, SINAR (rate 130, 20 DAA): 0
- damage to plant, STEME (rate 130, 20 DAA): 0
- damage to plant, VERPE (rate 130, 20 DAA): 0
- damage to plant, ALOMY (rate 250, 20 DAA): 0
- damage to plant, AVEFA (rate 250, 20 DAA): 20
- damage to plant, BEAVA (rate 250, 20 DAA): 0
- damage to plant, BROTE (rate 250, 20 DAA): 0
- damage to plant, BRSNN (rate 250, 20 DAA): 0
- damage to plant, CHEAL (rate 250, 20 DAA): 0
- damage to plant, GALAP (rate 250, 20 DAA): 0
- damage to plant, HORVW (rate 250, 20 DAA): 0
- damage to plant, KCHSC (rate 250, 20 DAA): 0
- damage to plant, LOLPE (rate 250, 20 DAA): 0
- damage to plant, POAAN (rate 250, 20 DAA): 0
- damage to plant, POLCO (rate 250, 20 DAA): 0
- damage to plant, SINAR (rate 250, 20 DAA): 0
- damage to plant, STEME (rate 250, 20 DAA): 0
- damage to plant, VERPE (rate 250, 20 DAA): 0
- damage to plant, ALOMY (rate 500, 20 DAA): 0
- damage to plant, AVEFA (rate 500, 20 DAA): 50
- damage to plant, BEAVA (rate 500, 20 DAA): 0
- damage to plant, BROTE (rate 500, 20 DAA): 0
- damage to plant, BRSNN (rate 500, 20 DAA): 0
- damage to plant, CHEAL (rate 500, 20 DAA): 0
- damage to plant, GALAP (rate 500, 20 DAA): 0
- damage to plant, HORVW (rate 500, 20 DAA): 0
- damage to plant, KCHSC (rate 500, 20 DAA): 0
- damage to plant, LOLPE (rate 500, 20 DAA): 0
- damage to plant, POAAN (rate 500, 20 DAA): 0
- damage to plant, POLCO (rate 500, 20 DAA): 0
- damage to plant, SINAR (rate 500, 20 DAA): 0
- damage to plant, STEME (rate 500, 20 DAA): 0
- damage to plant, VERPE (rate 500, 20 DAA): 0
